Source: patent US20240352430A1, “FoF1-ATP SYNTHASE OLIGOMER” (KYOTO UNIVERSITY, priority 2021, published 2024)

B1: IF1: ATP synthase inhibitory factor subunit 1, an endogenous inhibitory protein of a mammalian ATP synthase (protein, UniProt Q9UII2 26-106, looked up)
ATPase inhibitor, …: GSDQSENVDRGAGSIREAGGAFGKREQAEEERYFRAQSREQLAALKKHHEEEIVHHKKEIERLQKEIERHKQKIKMLKHDD

Target: T1, FoF1-ATP synthase of cultured cells derived from human (HEK293) (Homo sapiens, UniProt P05496)
T1 construct: fractions containing cultured cell FoF1-ATP synthase obtained by the first centrifugation; endogenous in cells; host or cells: HEK293 (enzyme solubilised with GDN from the mitochondrial inner membrane and fractionated on sucrose density gradients)
Experiment: ATP hydrolysis activity, change in absorbance at 340 nm by NADH oxidation
Format: biochemical
From the text: The FoF1-ATP synthase oligomer of the present invention has, in one embodiment, ATP synthesis activity or hydrolysis activity. These activities can be determined by methods well known to those skilled in the art. For example, ATP synthesis activity can be determined by using a luminescent reaction of the luciferin/luciferase system to determine the generated ATP. In addition, ATP hydrolysis activity can be determined based on absorbance changes at 340 nm by conjugating the hydrolysis reaction of ATP and the oxidation reaction from NADH (nicotinamide adenine dinucleotide) to NAD^+ in the presence of phosphoenolpyruvic acid, pyruvate kinase, and lactate dehydrogenase.
ATP hydrolysis activity of the fractions containing cultured cell FoF1-ATP synthase obtained by the first centrifugation under discontinuous density gradient of sucrose was determined. That is, the hydrolysis reaction of ATP with FoF1-ATP synthase was determined at 20° C. as change in absorbance at 340 nm by oxidation from NADH to NAD^+ conjugated with this reaction.
ATP hydrolysis activity of the samples contained in fraction 6-1 was determined in the same manner as described above in the presence or absence of oligomycin.
ATP hydrolysis activity of the samples collected from fraction 7 containing FoF1-ATP synthase tetramer and dimer was determined in the presence or absence of oligomycin, as in Example 1. If IF1, an endogenous inhibitory protein of mammalian ATP synthase, binds to FoF1-ATP synthase, the enzyme reaction is stopped. In order to release from FoF1-ATP synthase, samples collected from fraction 7 were mixed with 330 mM KCl and 100 mM Tris-HCl (pH 8.2). After incubation for 10 minutes at room temperature, ATP hydrolysis activity was determined. IF1 forms a dimer, binds between two FoF1-ATP synthase dimers, and stops the rotation of F1 present outside the membrane. As a result, ATP synthesis of the enzyme is stopped. Oligomycin binds to Fo of FoF1-ATP synthase and inhibits ATP synthesis.

| Molecule | ATP hydrolysis activity of the sample contained in fraction 6-1 in the presence of oligomycin (fraction 6-1 of first discontinuous sucrose density gradient centrifugation, HEK293, 20° C., FIG. 7) | ATP hydrolysis activity of the sample of fraction 7 in the presence of oligomycin (fraction 7 of third continuous sucrose density gradient centrifugation, HEK293, regardless of treatment to release IF1, FIG. 12) | Enzyme inhibition of the ATP synthase contained in fraction 7 by IF1 (fraction 7, third centrifugation, activity compared with and without treatment to release IF1 (330 mM KCl, 100 mM Tris-HCl pH 8.2, 10 minutes), FIG. 12) |
| --- | --- | --- | --- |
| CC[C@H]1/C=C/C=C/C[C@@H](C)[C@H](O)[C@@](C)(O)C(=O)[C@@H](C)[C@H](O)[C@@H](C)C(=O)[C@@H](C)[C@H](O)[C@@H](C)/C=C/C(=O)O[C@@H]2[C@H](C)[C@H](CC1)O[C@]1(CC[C@H](C)[C@H](C[C@@H](C)O)O1)[C@H]2C [oligomycin] | inhibited | did not exhibit ATP hydrolysis activity |  |
| B1 |  |  | undergoes enzyme inhibition by IF1 |
